Assay results published in BindingDB's records for patent US10188615 (ACUCELA INC., 2019).

What follows are compounds tested against T1, Retinoid isomerohydrolase (Human, UniProt Q16518) (assay: In Vitro Isomerase Inhibition Assay).
T1 sequence (Q16518 whole entry): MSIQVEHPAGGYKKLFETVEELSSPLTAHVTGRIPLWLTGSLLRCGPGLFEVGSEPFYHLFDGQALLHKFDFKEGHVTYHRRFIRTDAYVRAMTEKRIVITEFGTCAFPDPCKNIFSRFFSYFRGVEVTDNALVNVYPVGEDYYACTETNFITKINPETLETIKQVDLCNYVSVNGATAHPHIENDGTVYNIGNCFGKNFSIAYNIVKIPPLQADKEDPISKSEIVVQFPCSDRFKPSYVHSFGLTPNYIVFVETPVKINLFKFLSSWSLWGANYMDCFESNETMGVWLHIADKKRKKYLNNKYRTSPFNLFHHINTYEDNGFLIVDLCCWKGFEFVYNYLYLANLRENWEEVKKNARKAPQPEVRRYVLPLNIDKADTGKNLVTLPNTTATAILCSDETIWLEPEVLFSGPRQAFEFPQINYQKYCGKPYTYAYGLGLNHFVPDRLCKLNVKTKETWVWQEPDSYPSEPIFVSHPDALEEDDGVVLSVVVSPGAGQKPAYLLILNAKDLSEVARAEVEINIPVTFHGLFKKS

Structure (SMILES)	IC50
CN(C)C(=O)CCCOc1cccc(C(O)CCN)c1 (configuration not stated) [US10188615, Example 157]	in the range around 550 nM
CCCC(CCC)COc1cccc(O[C@@H](C)CN)c1 [US10188615, Example 63]	in the range around 550 nM
C=C(CCN)c1cccc(OCC2CCCCC2)c1 [US10188615, Example 78]	in the range around 550 nM
NCCCc1cccc(OCCCCCOCc2ccccc2)c1 [US10188615, Example 136]	in the range around 5500 nM
NCCOc1cccc(OCC2(O)CCCCCC2)c1 [US10188615, Example 18]	in the range around 550 nM
NCCC(O)c1cccc(OCC(O)c2ccccc2)c1 (configuration not stated) [US10188615, Example 161]	in the range around 55 nM
COc1ccccc1COc1cccc(C(O)CCN)c1 (configuration not stated) [US10188615, Example 92]	in the range around 55 nM
COCCOc1cccc(OCCN)c1 [US10188615, Example 113]	in the range around 5500 nM
NCCC(O)c1cccc(OCc2ccccc2)c1 (configuration not stated) [US10188615, Example 37]	in the range around 55 nM
NCCCc1cc(CO)cc(OCC2CCCCC2)c1 [US10188615, Example 142]	in the range around 5500 nM
NCCCc1cccc(OC[C@H]2CCCC[C@H]2O)c1 (relative stereo) [US10188615, Example 147]	in the range around 55 nM
NCC/C(=N\N)c1cccc(OCC2CCCCC2)c1 [US10188615, Example 126]	in the range around 550 nM
NCCCc1cccc(OCC2CC2)c1 [US10188615, Example 60]	in the range around 550 nM
NCCOc1cccc(OCC2(O)CCCCCCC2)c1 [US10188615, Example 139]	in the range around 550 nM
NCCCc1cccc(OCC2CCCCCCC2)c1 [US10188615, Example 99]	in the range around 550 nM
COCCCCOc1cccc(OCCN)c1 [US10188615, Example 82]	in the range around 550 nM

Structure (SMILES)	IC50
NCCOc1cccc(OCC2CCC2)c1 [US10188615, Example 58]	in the range around 550 nM
Cc1cccc(C)c1COc1cccc(OCCN)c1 [US10188615, Example 140]	in the range around 550 nM
C[C@@H](CN)Oc1cccc(OCC2CCCC2)c1 [US10188615, Example 64]	in the range around 550 nM
CCC(O)(CC)COc1cccc(OCCN)c1 [US10188615, Example 31]	in the range around 550 nM
CN(C)C(=O)CCCOc1cccc(OCCN)c1 [US10188615, Example 138]	in the range around 5500 nM
NCCCc1cccc(OCCCO)c1 [US10188615, Example 98]	in the range around 5500 nM
C[C@@H](CN)[C@@H](O)c1cccc(OCC2CCCCC2)c1 [US10188615, Example 75]	in the range around 55 nM
C[C@H](CN)Oc1cccc(OCC2CCCC2)c1 [US10188615, Example 52]	in the range around 550 nM
NCCCc1cccc(OCC2CCCC2)c1 [US10188615, Example 103]	in the range around 55 nM
CC(CCN)c1cccc(OCC2CCCCC2)c1 (configuration not stated) [US10188615, Example 81]	in the range around 55 nM
NCCOc1cccc(OCCCc2ccccc2)c1 [US10188615, Example 89]	in the range around 550 nM
Cc1cc(OCCN)cc(OCC2CCCCC2)c1 [US10188615, Example 154]	in the range around 55 nM
NCCC(F)c1cccc(OCC2CCCCC2)c1 (configuration not stated) [US10188615, Example 193]	in the range around 55 nM
NCC[C@@H](O)c1cc(O)cc(OCC2CCCCC2)c1 [US10188615, Example 179]	in the range around 55 nM
NCCCc1cccc(OCCCCCO)c1 [US10188615, Example 151]	in the range around 550 nM
CC(C)CCOc1cccc(OCCN)c1 [US10188615, Example 46]	in the range around 55 nM
